Like-named read-outs stand apart in the source and are kept apart here.
Experiments:
[1] = Water solubility when preparing stocks; assay type: physicochemical
[2] = tested on: Echis ocellatus venom metalloproteinase activity; experiment: In vitro snake venom metalloproteinase assay (quenched fluorogenic substrate), drug screen; assay type: biochemical; settings: 10 μM drug, control drug
Description: FIG. 1. Inhibition of Echis ocellatus venom metalloproteinase activity by known matrix metalloproteinase inhibitors (MMPi) and rationally selected drugs based on their target site interactions. One microgram of whole venom per reaction was incubated with 10 μM of drug (dissolved in DMSO). Predicted metalloproteinase inhibitors were based on descriptors from a MedChemExpress commercial library and the literature. […] The percentage metalloproteinase activity was calculated from an endpoint read taken 45 minutes after substrate addition. The phospholipase inhibitor varespladib was included as a non-metalloproteinase inhibiting drug control.
The snake venom metalloproteinase activity in the presence of inhibitors or vehicle control (DMSO), was measured using a quenched fluorogenic substrate (ES010, R&D Biosystems). […] The substrate was suspended in reaction buffer (150 mM NaCl, 50 mM Tris-HCl pH 7.5). Reactions consisted of 1 μg/reaction of venom (1 μg in 15 μl PBS) co-incubated with 0.91 μl of 1 mM of inhibitor, both added using the VIAFLO 384 (Integra). […] Strong hits were determined as those with less than 20% metalloproteinase activity of the venom and mediocre hits between 20 and 50%. […]

[3] = tested on: S. miliarius venom; experiment: Murine preincubation model of venom lethality, North American pit viper venom; assay type: in vivo, CD-1 mice; settings: 2.5×LD50 S. miliarius venom preincubated with 60 μg of each drug, i.v., 6 h, n=5
Description: Thereafter, the same murine animal model was used to explore the efficacy of the same snake venom metalloproteinase and phospholipase A2 inhibiting drugs as solo and combination treatments against North American pit viper venoms. The intravenous median lethal dose (venom LD50) for C. atrox, C. scutulatus, S. miliariius and A. contortrix venoms was previously determined (3.79 μg, 0.17 μg, 4.87 μg and 4.99 μg per mouse, respectively). […] As described above, all experimental doses were prepared to a volume of 200 μl in PBS and incubated at 37° C. for 30 min prior to their intravenous injection via the tail vein. Animals were monitored for 6 h, and euthanized via rising concentrations of CO2 upon observation of previously defined humane end points that are predicators of lethality (e.g., seizure, pulmonary distress, paralysis, hemorrhage). Deaths, time of death, and survivors were recorded; where death/time of death represents the implementation of euthanasia based on defined humane end points.
These snake species were selected for their taxonomic diversity and clinical importance in the USA, namely: 1) Crotalus atrox (Western diamondback), which is found across the southwest USA and into Mexico and is thought to be the most common cause of snakebite envenoming in USA, 2) Crotalus scutulatus (Mojave rattlesnake), which is also found across the southwest USA and into Mexico, 3) Sistrurus miliarius (pygmy rattlesnake), which is found in the South-East USA, and 4) Agkistrodon contortrix (Eastern copperhead), which is found in central and eastern USA. […] The drug treatments consisted of: DMPS, marimastat, or varespladib as solo drug treatments, or a DMPS and varespladib combination, or a marimastat and varespladib combination.

[4] = cited from earlier work
[5] = tested on: Echis ocellatus venom; experiment: Murine 'challenge then treat' model of envenoming, intraperitoneal; assay type: in vivo, CD-1 mice
Description: FIG. 18. […] Kaplan-Meier survival graphs for experimental animals (n=5) that received E. ocellatus venom (intraperitoneal administration of 90 μg; 5×iv. LD50), followed by delayed drug treatment intraperitoneally 15 mins later. […] For the DMPS and antivenom (D+AV) group, experimental animals received 120 μg of DMPS 15 mins after venom, and intravenous antivenom (168 μl of the E. ocellatus monospecific antivenom EchiTAbG, MicroPharm Ltd, UK) 1 hr after venom delivery. All DMPS data presented is taken from Albulescu et al. “Preclinical validation of a repurposed metal chelator as an early-intervention therapeutic for hemotoxic snakebite. Sci. Trans. Med. 12, eaay8314 (2020)”).
To better mimic a snakebite scenario, mice were initially challenged with venom, followed by the delayed administration of a single drug or a combination of drugs, as previously described. The venom challenge dose was increased to ensure complete lethality in the venom-only control group occurred within 4-5 hours. Groups of five male 18-22 g CD-1 mice (Charles River, UK) were injected with venom (100 μl final volume), followed by a drug dose that was scaled up accordingly after 15 min. […] Experimental animals were monitored for 24 h, with humane end points for euthanasia, and data recording, performed as described above. […]

SMILES | water solubility [1] | inhibitory effect against venom metalloproteinase activity [2] | protection against venom lethality [3] | half-life ([4]; delivered by iv infusion) | oral bioavailability (words) ([4]; human, in vivo, po) | oral bioavailability ([4]; human, in vivo, po) | oral bioavailability (words) ([4]; human, in vivo, po, listed as Marimastat) | half-life ([4]; oral) | time to peak plasma concentrations post-administration ([4]; oral) | survival ([5]; 90 μg venom i.p. (5×i.v. LD50), 120 μg of each drug i.p. 15 min later, 24 h monitoring, n=5) | adverse effects in drug-only controls ([5]; drug only, i.p., 24 hour monitoring)
CCc1c(C(=O)C(N)=O)c2c(OCC(=O)O)cccc2n1Cc1ccccc1 [varespladib] | water insolubility | no inhibitory effect | survived for longer periods of time than the venom only controls | 5 h | good oral bioavailability | – | – | – | – | – | –
CNC(=O)[C@@H](NC(=O)[C@H](CC(C)C)[C@H](O)C(=O)NO)C(C)(C)C [marimastat] | – | – | some protection | – | excellent oral bioavailability | 70% | particularly good oral bioavailability | 8 to 10 h | 1.5 to 3 h | – | –
O=S(=O)(O)CC(S)CS (stereo not shown) [DMPS, 2,3-dimercapto-1-propanesulfonic acid] | – | – | – | – | – | – | – | – | – | only two of the five experimental animals survived | None of the animals receiving DMPS alone displayed any adverse effects

Source: patent US12285408B2, “Methods and compositions for the treatment of snake bite” (priority 2021, dated 2025)
